Patent US7435721B2, “Transport peptides such as C-terminal Erns peptide and analogues thereof” (Pepscan Systems B.V., priority 2000, dated 2008)
Converted amounts (≈) assume the structure as drawn. Read-outs that look alike come from different tables or passages of the source. Residues, ends and D or L forms follow the SMILES beside them. *: point of attachment. Biotin = O=C1N[C@H]2[C@H](CS[C@H]2CCCCC(=O)*)N1

What was measured:
[1] = tested on: live cells in suspension or subconfluent monolayers; format: cell-based
skin of a live pig = tested on: skin of a live pig
Protocol: (§1) Transdermal transport. The potential of the an E^rns peptide to penetrate the skin was tested by applying 150 μl 0.3-4 mM of biotinylated peptide in a chamber containing an isolated piece of “fresh” human breast skin or in a chamber which was glued on the skin of a live pig, or applying 50 μl of peptide solution on the skin with a cotton wool tip, or applying 50 μl of a peptide solution mixed with 50 μl of contact gel on the skin for 30 minutes to 120 minutes. After the incubation time, the pig was killed, the skin was cleaned and biopsied, and a biopsy was frozen in liquid nitrogen. Cryosections of the skin samples were fixed on microscopic slides with acetone and incubated with streptavidin-FITC ( 1/100) for 30 minutes.

human breast skin = human breast skin in vitro, two hours
Protocol: as §1

[2] = tested on: fixed cells (Ebtr, SK6, sf-21, Caco-2 and HT-29); format: cell-based
guinea pig erythrocytes = assay: Hemolytic assay, guinea pig erythrocytes; format: cell-based; settings: 1% v/v, one hour at 37° C.
Protocol: Hemolytic assay. Hemolytic activity of various peptide concentrations was determined by incubation with human, guinea pig or sheep erythrocyte suspensions (final erythrocyte concentration, 1% v/v) for one hour at 37° C. After cooling and centrifugation, the optical density of the supernatants were measured at 540 nm. Peptide concentrations causing 50% hemolysis (EC50) were derived from the dose-response curves.

[3] = tested on: Escherichia coli ATCC 25922; assay: Antimicrobial assay (MIC), E. coli; format: cell-based; settings: overnight at 37° C.
Protocol: Antimicrobial assay. Two bacterial strains (Escherichia coli ATCC 25922 and Enterococcus faecalis ATCC 29212) were inoculated on heart infusion agar with 5% sheep blood and incubated aerobically overnight at 37° C. From the pure cultures, suspensions were made in saline to a density of 0.5 McFarland. These suspensions were diluted ten-fold in Mueller Hinton II broth, resulting in a final inoculum of approximately 10^7 cfu/ml.
Standard 96-well microtiter trays were filled with 100 ill of two-fold dilutions of peptide in physiologic salt solution in each well, resulting in the following concentration range: 4000, 2000, 1000, 500, 250, 125, 62.25, 31.63, 15.82, 7.96 and 0 μg/ml. The trays in column 12 were filled with 200 μl MH II broth (negative control).
Columns 1-11 of the microtiter trays were filled with 100 μl of the final inoculum of the bacterial suspensions, thus diluting the concentrations of the peptide two fold, resulting in the following peptide concentration range in the wells: 2000, 1000, 500, 250, 125, 62.25, 31.63, 15.82, 7.96, 3.98 and 0 μg/ml. In rows B, C and D, 100 μl of the final inoculum of E. coli and, in rows E, F and G, 100 μl of the final inoculum of E. faecalis was pipetted. The final bacterial concentration was approximately 5×10^5 cfu/well. All trays were sealed and incubated overnight at 37° C. After incubation, the microtiter trays were inspected visually for bacterial growth and the absorbance of the cultures at 630 nm (A630) was determined with an ELISA-reader. […] The experiment was performed independently in triplicate. The test was repeated again in triplicate after two days with the final peptide concentration range in the wells: 5000, 2500, 1250, 625, 312.5, 156.25, 78.12, 39.06, 19.58, 9.79, 4.88, 2.44 and 1.22 μg/ml.

[4] = Table 9, lower concentration = higher translocation activity

Compound: Biotin-RSRGRLRRGAIRLQRG-Lysine (MTT)- broomacetic acid [A941]
- Concentration (translocation activity), optimization of E^rns peptide [1]: 0.03 µM
- Translocation activity (in words) [1]: higher translocation activity compared with the original MDK-20
- Accumulation in the skin compared with MDK-20 (skin of a live pig; transdermal transport, skin model not given): Much more accumulation in the skin

Compound: Biotin-GRQLRIAGRRLRGRSR-NH2 [MDK-20]
- Concentration (translocation activity), optimization of E^rns peptide [1]: 0.1 µM
- Skin penetration of biotinylated peptide (human breast skin): could be visualized with streptavidin-FITC in the epidermis and the dermis
- Skin penetration of biotinylated peptide (skin of a live pig; skin of a pig in vivo): same results
- Time after application at which penetration into the epidermis was observed (skin of a live pig; skin of a pig in vivo): 30 min

Compound: $ENARQGAARVTSWLGRQLRIAGKRLEGRSKTWFGAYA# [191-227]
- Peptide concentration that inhibits cell growth (HeLa cells): 50 µM
- Peptide concentration that inhibits cell growth (EBTr cells): 50 µM
- Time to optimal fluorescence [1]: 30 min
- Translocation activity (in words) [1]: penetrated inside all cell types
- Binding to fixed cells [2]: able to bind to all tested cell types

Compound: CC[C@H](C)[C@H](NC(=O)[C@H](CCCNC(=N)N)NC(=O)[C@H](CC(C)C)NC(=O)[C@H](CCC(N)=O)NC(=O)[C@H](CCCNC(=N)N)NC(=O)CNC(=O)[C@H](CC(C)C)NC(=O)[C@H](Cc1c[nH]c2ccccc12)NC(=O)[C@H](CO)NC(=O)[C@@H](NC(=O)[C@@H](NC(=O)[C@H](CCCNC(=N)N)NC(=O)[C@H](C)NC(=O)[C@H](C)NC(=O)CNC(=O)[C@H](CCC(N)=O)NC(=O)[C@H](CCCNC(=N)N)NC(=O)CCCC[C@@H]1SC[C@@H]2NC(=O)N[C@@H]21)C(C)C)[C@@H](C)O)C(=O)N[C@@H](C)C(=O)NCC(=O)N[C@@H](CCCCN)C(=O)N[C@@H](CCCNC(=N)N)C(=O)N[C@@H](CC(C)C)C(=O)N[C@@H](CCC(=O)O)C(=O)NCC(=O)N[C@@H](CCCNC(=N)N)C(=O)N[C@@H](CO)C(=O)N[C@@H](CCCCN)C(N)=O [194-220]
- Peptide concentration that inhibits cell growth (HeLa cells; HeLa, 75 minutes incubation, growth checked after 3 to 6 days): 40 µM
- Hemolysis (peptide concentration causing 50% hemolysis) (guinea pig erythrocytes): 0.26 mg/mL
- Peptide concentration that inhibits cell growth (EBTr cells; EBTr, 75 minutes incubation, growth checked after 3 to 6 days): 60 µM
- Concentration at which biotinylated peptide was still (faintly) detectable [1]: 125 nM
- Concentration (translocation activity), optimization of E^rns peptide [1, 4]: 1.0 µM
- MIC (minimal inhibitory concentration needed to inhibit bacterial growth) [3]: 50 µg/mL (≈ 15.3 µM)

Compound: CC[C@H](C)[C@H](NC(=O)[C@H](CCCNC(=N)N)NC(=O)[C@H](CC(C)C)NC(=O)[C@H](CCC(N)=O)NC(=O)[C@H](CCCNC(=N)N)NC(=O)CNC(=O)[C@H](CC(C)C)NC(=O)[C@H](Cc1c[nH]c2ccccc12)NC(=O)[C@H](CO)NC(=O)[C@@H](NC(=O)[C@@H](NC(=O)[C@H](CCCNC(=N)N)NC(=O)[C@H](C)NC(=O)[C@H](C)NC(=O)CNC(=O)[C@H](CCC(N)=O)NC(=O)[C@H](CCCNC(=N)N)NC(=O)[C@H](C)NC(=O)[C@H](CC(N)=O)NC(=O)[C@H](CCC(=O)O)NC(=O)[C@@H](NC(=O)[C@@H](NC(=O)[C@H](CC(N)=O)NC(=O)[C@@H](NC(=O)[C@H](CCSC)NC(=O)CNC(=O)[C@H](CC(=O)O)NC(=O)[C@H](CC(C)C)NC(=O)[C@H](CC(C)C)NC(=O)[C@H](Cc1ccc(O)cc1)NC(=O)[C@H](CC(C)C)NC(=O)[C@H](C)NC(=O)[C@@H](NC(=O)[C@H](CC(=O)O)NC(=O)CCCC[C@@H]1SC[C@@H]2NC(=O)N[C@@H]21)[C@@H](C)O)[C@@H](C)O)[C@@H](C)O)[C@@H](C)CC)C(C)C)[C@@H](C)O)C(=O)N[C@@H](C)C(=O)NCC(=O)N[C@@H](CCCCN)C(=O)N[C@@H](CCCNC(=N)N)C(=O)N[C@@H](CC(C)C)C(=O)N[C@@H](CCC(=O)O)C(N)=O [177-216]
- Hemolysis (peptide concentration causing 50% hemolysis) (guinea pig erythrocytes): 0.23 mg/mL
- MIC (minimal inhibitory concentration needed to inhibit bacterial growth) [3]: 224 µg/mL (≈ 47.8 µM)

Compound: CC[C@H](C)[C@H](NC(=O)[C@H](CCCNC(=N)N)NC(=O)[C@H](CC(C)C)NC(=O)[C@H](CCC(N)=O)NC(=O)[C@H](CCCNC(=N)N)NC(=O)CNC(=O)CCCC[C@@H]1SC[C@@H]2NC(=O)N[C@@H]21)C(=O)N[C@@H](C)C(=O)NCC(=O)N[C@@H](CCCCN)C(=O)N[C@@H](CCCNC(=N)N)C(=O)N[C@@H](CC(C)C)C(=O)N[C@@H](CCC(=O)O)C(=O)NCC(=O)N[C@@H](CCCNC(=N)N)C(=O)N[C@@H](CO)C(=O)N[C@@H](CCCCN)C(N)=O [205-220]
- Hemolysis (peptide concentration causing 50% hemolysis) (guinea pig erythrocytes): >0.33 mg/mL
- Concentration (translocation activity), optimization of E^rns peptide [1, 4]: 1.0 µM
- MIC (minimal inhibitory concentration needed to inhibit bacterial growth) [3]: >500 µg/mL

Compound: CC[C@H](C)[C@H](NC(=O)[C@H](CCCNC(=N)N)NC(=O)[C@H](CC(C)C)NC(=O)[C@H](CCC(N)=O)NC(=O)[C@H](CCCNC(=N)N)NC(=O)CNC(=O)[C@H](CC(C)C)NC(=O)[C@H](Cc1c[nH]c2ccccc12)NC(=O)[C@H](CO)NC(=O)CCCC[C@@H]1SC[C@@H]2NC(=O)N[C@@H]21)C(=O)N[C@@H](C)C(=O)NCC(=O)N[C@@H](CCCCN)C(=O)N[C@@H](CCCNC(=N)N)C(=O)N[C@@H](CC(C)C)C(=O)N[C@@H](CCC(=O)O)C(=O)NCC(=O)N[C@@H](CCCNC(=N)N)C(=O)N[C@@H](CO)C(=O)N[C@@H](CCCCN)C(N)=O [202-220]
- Hemolysis (peptide concentration causing 50% hemolysis) (guinea pig erythrocytes): >0.33 mg/mL
- MIC (minimal inhibitory concentration needed to inhibit bacterial growth) [3]: 179 µg/mL (≈ 73.5 µM)

Compound: CC[C@H](C)[C@H](NC(=O)[C@H](CCCNC(=N)N)NC(=O)[C@H](CC(C)C)NC(=O)[C@H](CCC(N)=O)NC(=O)[C@H](CCCNC(=N)N)NC(=O)CNC(=O)[C@H](CC(C)C)NC(=O)[C@H](Cc1c[nH]c2ccccc12)NC(=O)[C@H](CO)NC(=O)[C@@H](NC(=O)[C@@H](NC(=O)[C@H](CCCNC(=N)N)NC(=O)[C@H](C)NC(=O)[C@H](C)NC(=O)CNC(=O)CCCC[C@@H]1SC[C@@H]2NC(=O)N[C@@H]21)C(C)C)[C@@H](C)O)C(=O)N[C@@H](C)C(=O)NCC(=O)N[C@@H](CCCCN)C(=O)N[C@@H](CCCNC(=N)N)C(=O)N[C@@H](CC(C)C)C(=O)N[C@@H](CCC(=O)O)C(=O)NCC(=O)N[C@@H](CCCNC(=N)N)C(=O)N[C@@H](CO)C(=O)N[C@@H](CCCCN)C(N)=O [196-220]
- Hemolysis (peptide concentration causing 50% hemolysis) (guinea pig erythrocytes): 0.16 mg/mL
- MIC (minimal inhibitory concentration needed to inhibit bacterial growth) [3]: 25 µg/mL (≈ 8.35 µM)

Compound: CC(C)C[C@H](NC(=O)[C@H](CCC(N)=O)NC(=O)[C@H](CCCCN)NC(=O)CNC(=O)[C@H](CC(C)C)NC(=O)[C@H](Cc1c[nH]c2ccccc12)NC(=O)[C@@H](NC(=O)[C@@H](NC(=O)[C@H](CC(C)C)NC(=O)[C@H](CCCCN)NC(=O)[C@H](C)NC(=O)[C@@H](NC(=O)CNC(=O)[C@H](CCC(N)=O)NC(=O)[C@H](CCCNC(=N)N)NC(=O)[C@H](C)NC(=O)CNC(=O)[C@H](CCC(=O)O)NC(=O)CCCC[C@@H]1SC[C@@H]2NC(=O)N[C@@H]21)[C@@H](C)O)[C@@H](C)O)[C@@H](C)O)C(=O)NCC(=O)N[C@H](C(=O)N[C@@H](C)C(=O)NCC(=O)N[C@@H](CCCCN)C(=O)N[C@@H](CCCCN)C(=O)N[C@@H](CC(C)C)C(=O)N[C@@H](CCC(=O)O)C(=O)N[C@@H](CC(N)=O)C(=O)N[C@@H](CCCCN)C(=O)N[C@@H](CO)C(=O)N[C@@H](CCCCN)C(=O)N[C@H](C(=O)N[C@@H](Cc1c[nH]c2ccccc12)C(=O)N[C@@H](Cc1ccccc1)C(=O)NCC(=O)N[C@@H](C)C(=O)N[C@@H](Cc1ccc(O)cc1)C(=O)N[C@@H](C)C(N)=O)[C@@H](C)O)[C@@H](C)O [194-230] (Biotin-EGARQGTAKLTTWLGKQLGTAGKKLENKSKTWFGAYA-NH2)
- Hemolysis (peptide concentration causing 50% hemolysis) (guinea pig erythrocytes): 0.25 mg/mL
- MIC (minimal inhibitory concentration needed to inhibit bacterial growth) [3]: 93 µg/mL (≈ 22 µM)
